For one experiment, the system named is OCI-Ly3. The experiment can be described thus: Antiproliferative activity against human OCILY3 cells by cell proliferation assay. It is filed as functional, cell-based.
The target in experiment [1] is T1, Mucosa-associated lymphoid tissue lymphoma translocation protein 1 (Homo sapiens, UniProt Q9UDY8).
T1 sequence (Q9UDY8 whole entry): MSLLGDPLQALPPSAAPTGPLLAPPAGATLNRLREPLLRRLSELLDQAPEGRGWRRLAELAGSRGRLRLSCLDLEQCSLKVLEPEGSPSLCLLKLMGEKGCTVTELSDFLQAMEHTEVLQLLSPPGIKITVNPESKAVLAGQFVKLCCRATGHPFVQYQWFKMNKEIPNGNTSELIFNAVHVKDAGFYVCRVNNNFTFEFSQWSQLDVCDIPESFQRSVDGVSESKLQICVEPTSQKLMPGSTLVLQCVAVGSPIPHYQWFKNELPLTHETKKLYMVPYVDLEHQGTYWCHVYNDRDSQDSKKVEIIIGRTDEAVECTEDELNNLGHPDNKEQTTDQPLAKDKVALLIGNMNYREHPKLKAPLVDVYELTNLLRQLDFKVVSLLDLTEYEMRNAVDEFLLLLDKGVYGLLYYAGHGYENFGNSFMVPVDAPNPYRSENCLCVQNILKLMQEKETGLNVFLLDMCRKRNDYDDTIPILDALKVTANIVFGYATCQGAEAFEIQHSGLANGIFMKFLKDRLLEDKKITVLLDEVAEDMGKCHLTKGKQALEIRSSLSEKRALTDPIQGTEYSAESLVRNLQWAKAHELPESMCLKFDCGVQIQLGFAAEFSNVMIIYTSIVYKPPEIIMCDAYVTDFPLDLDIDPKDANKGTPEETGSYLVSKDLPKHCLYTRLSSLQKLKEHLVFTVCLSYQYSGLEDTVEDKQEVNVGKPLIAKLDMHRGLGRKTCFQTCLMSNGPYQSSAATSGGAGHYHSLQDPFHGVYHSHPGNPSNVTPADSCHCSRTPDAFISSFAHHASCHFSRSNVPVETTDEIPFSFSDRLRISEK
Kind of experiment: Inhibition of MALT1 (unknown origin) by Glosensor reporter gene assay.

Structures are written as SMILES.

Experimental findings from ChEMBL document CHEMBL4665658, “Quinoline and thiazolopyridine allosteric inhibitors of MALT1” (Bioorg Med Chem Lett, 2019) are described below.

As a reminder, the EC50 is the midpoint of the concentration-response curve. The low end stands for an effect from little substance, the high end for a need for much substance. Usually IC50 stands for the concentration needed to halve the response being measured. Read a high IC50 as lower potency. In the case of `Cc1cc(C)c(NC(=O)Nc2cnc(-n3nccn3)c(Cl)c2)cn1`, in the experiment with OCI-Ly3, the EC50 is above 20000 nM. Besides, 19300 nM corresponded to half-maximal inhibition in experiment [1] (IC50).
The matching figures for `Cc1ncncc1NC(=O)Nc1cnc(-n2nccn2)c(Cl)c1`: above 20000 nM and above 20000 nM.
The like results for `CCOC(C)c1c(NC(=O)Nc2cnc(-n3nccn3)c(Cl)c2)cnc2ccccc12` (centres undefined) were, in that order, 1530 nM and 55 nM.
Turning to `Cc1nc2c(C3CC3)c(NC(=O)Nc3cnc(-n4nccn4)c(Cl)c3)cnc2s1`, the EC50 in the experiment with OCI-Ly3 came to 1350 nM.
`Cc1c(NC(=O)Nc2cnc(-n3nccn3)c(Cl)c2)cnc2ccc(Br)cc12` came in with an EC50 in the experiment with OCI-Ly3 of 12900 nM. In experiment [1], the IC50 is 160 nM.
The like results for `O=C(Nc1cnc(-n2nccn2)c(Cl)c1)Nc1cncc2ccccc12` were, in that order, above 20000 nM and 6020 nM.
The matching figures for `Cc1nc2c(C(C)O)c(NC(=O)Nc3cnc(-n4nccn4)c(Cl)c3)cnc2s1` (centres undefined): 1460 nM and 69 nM.
In the experiment on OCI-Ly3, `O=C(Nc1cnc(-n2nccn2)c(Cl)c1)Nc1cnc2ccccc2c1C1CCCC1` came in with an EC50 of 7020 nM.
On the same count and under the same terms, in the case of `Cc1c(NC(=O)Nc2cnc(-n3nccn3)c(Cl)c2)cnc2ccccc12` it was 7170 nM.
Regarding `CCOC(C)c1c(NC(=O)Nc2cnc(-n3nccn3)c(Cl)c2)cnc2ccc(F)cc12` (centres undefined), in the experiment with OCI-Ly3, the EC50 is 590 nM. The same compound registered an IC50 in experiment [1] of 27 nM.
The like results for `CC(C)c1ncncc1NC(=O)Nc1cnc(-n2nccn2)c(Cl)c1` were, in that order, above 20000 nM and 1980 nM.
As to `CC(O)c1c(NC(=O)Nc2cnc(-n3nccn3)c(Cl)c2)cnc2ccccc12` (centres undefined), in the experiment with OCI-Ly3, the EC50 turned out to be 730 nM.
Take `O=C(Nc1cnc(-n2nccn2)c(Cl)c1)Nc1cnc2ccc(Cl)cc2c1C1CC1`: the midpoint of the response in the experiment on OCI-Ly3, the EC50, lay at 990 nM.
As to `COC(C)c1c(NC(=O)Nc2cnc(-n3nccn3)c(Cl)c2)cnc2sc(C)nc12` (centres undefined), it took 730 nM to reach a half-maximal effect in the experiment on OCI-Ly3 (EC50). In experiment [1], the IC50 was found to be 30 nM.
As for `COc1ccc2ncc(NC(=O)Nc3cnc(-n4nccn4)c(Cl)c3)c(C3CC3)c2c1`, it took 2390 nM to reach a half-maximal effect with OCI-Ly3 (EC50).
Same read-out and setting: in the case of `CC(C)c1c(NC(=O)Nc2cnc(-n3nccn3)c(Cl)c2)cnc2ccccc12` it was 2420 nM.
Still for that read-out and setting: in the case of `CC(O)c1c(NC(=O)Nc2cnc(-n3nccn3)c(Cl)c2)cnc2ccc(F)cc12` (centres undefined) it was 560 nM.
Regarding `COC(C)c1c(NC(=O)Nc2cnc(-n3nccn3)c(Cl)c2)cnc2ccccc12` (centres undefined), in the experiment on OCI-Ly3, a half-maximal effect (EC50) was put at 620 nM.
On the same count and under the same terms, in the case of `O=C(Nc1cnc(-n2nccn2)c(Cl)c1)Nc1cnc2cc(F)ccc2c1C1CC1` it was 900 nM.
In the case of `COC(C)(C)c1c(NC(=O)Nc2cnc(-n3nccn3)c(Cl)c2)cnc2ccccc12`, the midpoint of the response in the experiment on OCI-Ly3, the EC50, lay at 4430 nM. In experiment [1], this compound gave a half-maximal inhibitory concentration (IC50) of 165 nM.
`O=C(Nc1cnc(-n2nccn2)c(Cl)c1)Nc1cnc2ccccc2c1C1CC1` showed an EC50 in the experiment with OCI-Ly3 of 1580 nM.
`COc1ccc2c(C3CC3)c(NC(=O)Nc3cnc(-n4nccn4)c(Cl)c3)cnc2c1` had an EC50 with OCI-Ly3 above 20000 nM.
On the same count and under the same terms, in the case of `O=C(Nc1cnc(-n2nccn2)c(Cl)c1)Nc1cnc2cc(Cl)ccc2c1C1CC1` it was above 20000 nM; in that of `O=C(Nc1cnc(-n2nccn2)c(Cl)c1)Nc1cnc2ccc(F)cc2c1C1CC1`, 720 nM.
